Here are results for one molecule from US12398110B2, “Second generation inhibitors of mitochondrial permeability transition pore with improved plasma stability” (Oregon Health & Science University, priority 2019, dated 2025).

The structures appear in SMILES notation.

Assay [1] has as its system mtPTP. Kind of assay: Ca2+ retention capacity (CRC) of isolated mouse liver mitochondria. The class given is biochemical. The protocol: CRC determines the Ca^2+ threshold required for mtPTP activation; inhibitors of mtPTP are expected to increase the Ca^2+ threshold required for mtPTP induction. Extramitochondrial Ca^2+ changes are detected using the membrane-impermeant Ca^2+ indicator, Calcium Green-5N.
(§1) Isolation of mitochondria. C57BL6/N mouse liver mitochondria were prepared from 2 to 6 month old male mice by standard differential centrifugation. Mice fed ad libitum were euthanized with CO2 followed cervical dislocation, their livers were existed and placed in a glass beaker containing ice-cold isolation buffer (IB: 0.25 m sucrose, 10 mm Tris-HCl, 0.1 mm EGTA-Tris, pH 7.4) supplemented with fatty acid free bovine serum albumin. Livers were then cut into small pieces with scissors, rinsed with ice-cold IB, and passed through a pre-chilled Potter homogenizer with Teflon pestle. The homogenate (˜30 mL per liver) was transferred to centrifuge tubes, and unbroken cells and nuclei were removed by centrifugation at 700 g for 10 min at 4° C. The supernatant containing mitochondria and other organelles was transferred to new tubes and centrifuged at 6000 g for 10 min at 4° C. The resulting supernatant was discarded and mitochondrial pellet was carefully suspended in ice-cold IB and spun at 9500 g for 5 min at 4° C. The pellet was suspended in IB to give a protein concentration of ˜60-80 mg/mL and stored on ice. Experiments were started immediately and completed within 5 h. Protein concentration was determined by the Biuret method.
Assessment of Ca^2+ retention capacity (CRC). CRC of isolated mouse liver mitochondria was assessed as follows: First, 0.1 mL of SAB were dispensed to a 96-well black assay plate in the presence of 2% DMSO (control wells) or varying concentrations of test compounds, in 1:2 serial dilutions. Then, 0.1 mL of 0.5 mg/mL mitochondria in SAB devoid of respiratory substrates, but supplemented with 1 μm Calcium Green-5N were added to all wells of the assay plate. A train of 10 μm CaCl2 pulses was added at 2 min intervals, and fluorescence intensity (ex/em 485/535 nm) was read on Tecan Infinite F200 plate reader.

Assay [2] concerns col6a1 zebrafish morphants. Put plainly: Birefringence (muscle structure) in col6a1 zebrafish morphants. The format is in vivo. The conditions noted are these: 48 hpf. The protocol: Muscle structure was assessed by birefringence analysis at 48 hpf, a time when muscle tissue is fully developed and organized muscle fibers start to show anisotropic features. A high percentage of severe birefringence abnormality (>75%, FIG. 6C) was detected in col6a1 morphants, indicating major defects of muscle fiber development and organization.
Morpholino antisense injection and treatment. Knock-down of col6a1 gene expression was obtained with a previously published morpholino ^[25] with sequence GAGAGCGGAAGACGAACCTTCATTC (SEQ ID NO: 2; GeneTools, Inc.). A control morpholino with no sequence homology in the zebrafish genome was used in parallel (CCTCTTACCTCAGTTACAATTTATA; SEQ ID NO: 3). Zebrafish eggs from wild-type matings were injected at the 1-2 cell stage with approximately 10 nL of 0.1 mm morpholino solution (corresponding to 4 ng of morpholino) using a WPI pneumatic PicoPump PV820 injector (World Precision Instruments, Inc.). […]
Birefringence. Muscle structure was monitored by birefringence analysis, taking advantage of muscle anisotropy, which is the ability of muscle fibers to refract polarized light. […] With this set-up, light refracted by muscle fibers (due to the pseudo-crystalline array of sarcomeres) is transmitted and analyzed. Integrated area of birefringence was calculated using ImageJ software. […]

Assay [3] deals with mtPTP. Put plainly: Ca2+ overload induced mitochondrial swelling in isolated mouse liver mitochondria. The class given is biochemical. Conditions: isolated mouse liver mitochondria; average ± SEM, n = 3-41; read-out: Mitochondrial Swelling EC50. The protocol: We next sought to evaluate the effects of TR001-13 on mtPTP activity in vitro. This was performed on isolated mitochondria. In isolated mitochondria induction of mtPTP opening leads to mitochondrial swelling due to the oncotic pressure gradient created by matrix proteins >1.5 kDa that cannot diffuse through the open pore. In in vitro experiments, where isolated mitochondria are routinely suspended in sucrose-based isosmotic solutions, the change in mitochondrial size can be measured spectrometrically by detecting the decrease in light scattering at 540 nm.
as §1
Assessment of mitochondrial swelling. Changes in mitochondrial volume of isolated mouse liver mitochondria were followed in a 96-well clear assay plate at a final volume of 0.2 mL and 0.25 mg/mL mitochondrial protein. Absorbance was read for 30 min at 540 nm on a Tecan Infinite F200 plate reader. Activity of test compounds was addressed as follows: First, 0.1 mL of sucrose assay buffer (SAB: 0.250 m sucrose, 10 mm MOPS-Tris, 0.01 mm EGTA-Tris, 1.0 mm phosphoric acid-Tris, 10 mm glutamate and 5 mm malate, pH 7.4) supplemented with twice the CaCl2 concentration required to induce mitochondrial swelling (which was determined for each preparation of mitochondria, typically 50 μm) was dispensed to the assay plate. A set of wells also contained 2.0 mm EGTA (to prevent mitochondrial swelling). The test wells contained a range of concentrations (in 1:2 serial dilutions) of the compounds of interest or 2% DMSO. Experiments were started by the addition of 0.1 mL of mitochondrial suspension (0.5 mg/mL mitochondria in SAB without respiratory substrates) to the assay plates. EC50s±SE were determined with OriginPro software by applying Hill1 function fitting algorithm on average concentration response data of n=3-41 independent preparations.

In the case of `Cc1ccc(Cl)cc1NC(=O)c1cn(-c2ccc(F)c(O)c2)nn1` [TR001, N-(5-chloro-2-methylphenyl)-1-(4-fluoro-3-hydroxyphenyl)-1H-1,2,3-triazole-4-carboxamide], the “CRC effect in combination with CsA” value in the assay on mtPTP [1] (TR001 in combination with 2 μm CsA) was “additive with CsA”. For the same molecule, the “CRC/CRC0 at 1.25 μM” value with mtPTP [1] (compound treated CRC to DMSO treated CRC0 ratio, 1.25 μM, average ± SEM, n = 3-25) is 6.8 ± 0.4. Further, in the assay with mtPTP [1] (mouse liver mitochondria), the “maximal efficacy as defined by CRC/CRC0 ratio” value is reported as ~10. In addition, in assay [2], the “muscle structure by birefringence” value is reported as “significantly rescued”. For the same molecule, the EC50 (commonly the concentration needed to bring the measured effect to its halfway point) with mtPTP [3] turned out to be 29 ± 8 nM.
